Reference: patent publication US11478475B2, “Inhibitor of histone deacetylase 6 in the treatment of t-cell acute lymphoblastic leukemia (T-ALL) and other neoplasia with high expression of notch-3” (ISTITUTO ONCOLOGICO VENETO IOV-IRCCS, priority 2017, dated 2022)
Residues, ends and D or L forms follow the SMILES beside them. *: point of attachment. Cbz = O=C(OCc1ccccc1)*

Experiments:
[1] = tested on: Notch3 receptor present in the membrane; assay: Cytofluorometric analysis of Notch3 membrane expression in T-ALL cells; format: cell-based, human
TALL1 cells = assay: Cytotoxicity seen as reduction of actin in Western blot; format: cell-based, human; conditions: 20 μM
Notch3 receptor [2] = assay: Western blotting of Notch3 protein in T-ALL cell lines; format: cell-based, human; conditions: 16 hours; for Notch3 protein levels, inhibitor added to TSA: MOLT3 and TALL1 cells, with proteasome or lysosome inhibitor
Procedure: In particular, in FIG. 1A is shown the three cell lines of T-ALL MOLT3, Jurkat and DND41 were treated for 16 hours in vitro with TSA 500 nM.
MOLT3 cells shown in FIG. 3A and TALL1 cells shown in FIG. 3B were treated with TSA 500 nM for 16 hours, and simultaneously in the presence or absence of a proteasome (MG132) or lysosome (chloroquine—CHL) inhibitor. […] The numbers below the bands refer to densitometric analysis.
In FIG. 4A, T-ALL cell lines and primary cells were treated in vitro for 16 hours with the HDAC6 inhibitor Tubacin (2 μM, TUB), HDAC1 inhibitor (2 μM, HDAC1i), or HDAC8 inhibitor (2 μM, HDAC8i). […] In FIG. 4C, the three cell lines of T-ALL MOLT3, Jurkat and DND41 (left) and n=3 primary lines (right) were treated for 24 hours in vitro with the compounds previously described, and cell death was evaluated by marking with Annexin V and analysis by cytofluorometer (*P<0.05, **P<0.01, ***P<0.001, mean±SD of three independent experiments).
(§1) In FIGS. 6A-6C, MOLT3 and TALL1 cell lines were infected with two different lentiviruses that block HDAC6 expression (shHDAC6 #1 and #2).
(§2) In FIG. 8A, JURKAT cells were treated in vitro with rocilinostat at a concentration of 8 μM for 16 hours.

Notch3 receptor [3] = assay: Notch3 protein levels in patient-derived primary T-ALL lines; format: cell-based, human; conditions: n=7 patient-derived primary lines; TSA 500 nM, 16 hours
Procedure: Initially we treated 3 T-ALL cell lines in the laboratory with Tricostatin A (TSA), a generic commercial inhibitor that inhibits the whole class of HDACs that is commonly used in experimental practices. […] The same result was obtained by treating 7 patient-derived primary lines in vitro with TSA.
(§3) In particular, in FIG. 1A is shown the three cell lines of T-ALL MOLT3, Jurkat and DND41 were treated for 16 hours in vitro with TSA 500 nM. The western blotting confirms the decrease of the full length (FL) Notch3 receptor after treatment. Inhibition of HDACs is confirmed by the increase of acetylated tubulin (Ac. α Tub.). […] The treatment with TSA is accompanied by a decrease in the target genes pTα, CR2, DTX-1 in the cell lines shown in FIG. 1D and in the primary cells shown in FIG. 1E. (*P<0.05, **P<0.01, ***P<0.001, mean±SD of three independent experiments).

[4] = tested on: T-ALL cell lines and primary lines; assay: Cell death by annexin V marking and cytofluorometer in T-ALL cells; format: cell-based, human; conditions: 24 hours
Procedure: (§4) In FIG. 2A and the 7 primary lines shown in FIG. 2B were treated for 24 hours in vitro with TSA 500 nM. Cell death was evaluated by marking with annexin V and analysis with the cytofluorometer. Proliferation inhibition shown in FIG. 2C was assessed in the MOLT3 line by cell count (left panel) and MTS assay (right panel). In FIG. 2D, the Jurkat cells were infected with a control virus (RV-CNTR) or with an expressing Notch3 virus (RV-N3) and subsequently treated with TSA 500 nM for 24 hours. Cell death was evaluated by a luminescence assay for caspase activation (*P<0.05, **P<0.01, ***P<0.001, mean±SD of three independent experiments).
(§5) In FIG. 4A, T-ALL cell lines and primary cells were treated in vitro for 16 hours with the HDAC6 inhibitor Tubacin (2 μM, TUB), HDAC1 inhibitor (2 μM, HDAC1i), or HDAC8 inhibitor (2 μM, HDAC8i). Treatment with Tubacin is shown in FIG. 4B, but not with the other inhibitors, is accompanied by a decrease in the target genes pTα, CR2, DTX-1. In FIG. 4C, the three cell lines of T-ALL MOLT3, Jurkat and DND41 (left) and n=3 primary lines (right) were treated for 24 hours in vitro with the compounds previously described, and cell death was evaluated by marking with Annexin V and analysis by cytofluorometer (*P<0.05, **P<0.01, ***P<0.001, mean±SD of three independent experiments).
In FIG. 5 the T-ALL cell lines were treated in vitro for 24 hours with the HDAC6 Tubacin inhibitor (2 μM, TUB) and cell death was assessed by marking with Annexin V and analysis by cytofluorometer (*P<0.05, **P<0.01, ***P<0.001, mean±SD of three independent experiments).
as §2

[5] = tested on: target genes pTα, CR2, DTX-1; assay: Expression of Notch target genes in T-ALL cell lines and primary cells; format: cell-based, human
Procedure: as §3, §5

[6] = tested on: acetylated tubulin (Ac. α Tub.); assay: Western blotting of acetylated tubulin in T-ALL cell lines; format: cell-based, human; conditions: 16 hours
Procedure: as §3, §2

[7] = tested on: Jurkat, MOLT3 and TALL1 cells; assay: Cell death by luminescence assay for caspase activation; format: cell-based, human; conditions: TSA 500 nM, 24 hours
Procedure: as §4, §1

[8] = tested on: Notch3 and the lysosomal marker LAMP2; assay: Immunofluorescence analysis of Notch3/LAMP2 co-localization; format: cell-based; conditions: after treatment with TSA, N=21 cells
MOLT3 line = assay: Proliferation by cell count and MTS assay; format: cell-based, human; conditions: TSA
Procedure: as §4

Notch3 [9] = assay: Cytofluorometric evaluation of Notch3 membrane expression in HCC-1143 cells; format: cell-based
Procedure: The following protocol was used for the graphs of FIG. 18:
(§6) Day 1: coating of plate with Notch ligands (ligand concentration 4 ng/uL)
(§7) Day 3 treatment with rocilinostat (16 μM) or control (DMSO)
Day 4: marking+reading by cytofluorometer

two T-ALL cell lines = assay: Cell viability by ATPlite assay; format: cell-based, human; conditions: 48 hours, indicated concentrations
HCC-1143 cells = assay: Dose-response growth curve in HCC-1143 cells; format: cell-based
[10] = tested on: MDA-MB-468 breast cancer cells; assay: Cell mortality by Annexin V/propidium iodide in MDA-MB-468 cells; format: cell-based; conditions: 16 μM
Procedure: For the assay of FIG. 14, the following protocol was used:
(§8) Day 1: coating (ligand concentration 4 ng/uL)
(§9) Day 3 treatment with 16 μM rocilinostat
Day 5: marking with Annexin V/propidium iodide+reading of mortality by cytofluorometer

Notch3 [11] = assay: Western blotting of Notch3 in MDA-MB-468 cells; format: cell-based; conditions: 8 μM
Procedure: (§10) In the assay of FIG. 11, Rocilinostat (ACY 1215) is used at a concentration of 8 μM in MDA-MB-468 cells. The expression of Notch3 and other markers was evaluated in cellular lysate by Western blotting.

NOTCH3 FL protein = assay: Notch3 FL protein levels in HCC-1143 cells; format: cell-based; conditions: 8 μM, 24 hours
Procedure: (§11) To evaluate the effects of rocilinostat on Notch3 expression in HCC-1143 cells, HCC-1143 cells were treated in vitro with rocilinostat at a concentration of 8 μM for 24 hours. […] The increase in acetylated tubulin levels confirms the activity of rocilinostat.

[12] = tested on: HCC1143 breast cancer cells; assay: Cell mortality by Annexin V/propidium iodide in HCC-1143 cells; format: cell-based; conditions: 16 μM
Procedure: For the graphs of FIG. 19, the following protocol was used:
as §8, §9
Day 5: marking with Annexin V/propidium iodide+reading of mortality by cytofluorometer.

acetylated tubulin = assay: Acetylated tubulin levels in HCC-1143 cells; format: cell-based; conditions: 8 μM, 24 hours
Procedure: as §11

HDAC6 = assay: Western blotting, inhibition of the target HDAC6 in MDA-MB-468 cells; format: cell-based; conditions: 8 μM
Procedure: as §10

Notch3 [13] = assay: Cytofluorometric evaluation of Notch3 expression in MDA-MB-468 cells; format: cell-based
Procedure: The graph of FIG. 12 confirms the reduction of Notch3 expression in MDA-MB-468 cell membrane after treatment with rocilinostat (8 μM) at 24 hours, in accordance with the results of the WB.
For the assay of FIG. 13, the following protocol was used:
as §6, §7
Day 4: Marking+reading by cytofluorometer

[14] = MOLT3, Jurkat and DND41, TSA 500 nM

With `CC(C)C[C@H](NC(=O)[C@H](Cc1ccccc1)NC(=O)c1cnccn1)B(O)O` [Bortezomib] the Notch3 expression ([1]; TALL1 cells, 20 μM) was “negative effect” and the “cytotoxicity (reduction of actin in Western blot)” value (TALL1 cells) was “high cytotoxicity”.
For `CCN(CC)CCCC(C)Nc1ccnc2cc(Cl)ccc12` (stereo not drawn) [Chloroquine, chloroquine], the “Notch3 protein levels, inhibitor added to TSA” value (Notch3 receptor [2]; TSA 500 nM) was “decrease of Notch3 blocked”.
With `CC(C)C[C@@H](C=O)NC(=O)[C@H](CC(C)C)NC(=O)[C@H](CC(C)C)NC(=O)OCc1ccccc1` [MG132] (Cbz-Leu-Leu-Leu-aldehyde) the “Notch3 protein levels, inhibitor added to TSA” value (Notch3 receptor [2]; TSA 500 nM) was “further lowers”.
With `CC(/C=C/C(=O)NO)=C\[C@@H](C)C(=O)c1ccc(N(C)C)cc1` [TSA, Tricostatin A] the “Notch3 receptor protein levels” value (Notch3 receptor [3]) was “confirming the result seen in the cell lines”, the “cell death (annexin V)” value ([4]; T-ALL cell lines and 7 primary lines, TSA 500 nM) was “induction of cell death” and the “Notch3 receptor present in the membrane” value ([1]; Jurkat cells, Notch2/3 antibody, cytofluorometer, TSA) was “decrease”. The “target genes pTα, CR2, DTX-1” value ([5]; cell lines and primary cells, treatment with TSA) was “decrease”, the “acetylated tubulin (Ac. α Tub.)” value [6, 14] was “increase” and the “full length (FL) Notch3 receptor, western blotting” value (Notch3 receptor [2]; [14]) was “decrease”. The “cell death (caspase activation) after restoring Notch3 levels (RV-N3 vs RV-CNTR)” value [7] was “die significantly less”, the “co-localization between Notch3 and LAMP2” value [8] was “increase in co-localization” and the “proliferation (cell count, MTS assay)” value (MOLT3 line) was “inhibition of proliferation”.
In the case of `O=C(CCCCCCC(=O)Nc1ccc([C@H]2O[C@@H](CSc3nc(-c4ccccc4)c(-c4ccccc4)o3)C[C@@H](c3ccc(CO)cc3)O2)cc1)NO` [Tubacin], the “cell death (annexin V)” value ([4]; MOLT3, Jurkat, DND41 and n=3 primary lines, 2 μM) is reported as “effects comparable to the generic TSA inhibitor”, the “sensitivity of TALL1 cell line compared with other cell lines (cell death, Annexin V)” value ([4]; Tubacin 2 μM) is reported as “significantly more sensitive” and the “target genes pTα, CR2, DTX-1” value ([5]; T-ALL cells, 2 μM, 16 hours) is reported as “decrease”. For the same compound, the “decrease in Notch3 protein levels” value (Notch3 receptor [2]; T-ALL cell lines and primary cells, 2 μM) was “effects comparable to the generic TSA inhibitor”.
In the case of `O=C(CCCCCCNC(=O)c1cnc(N(c2ccccc2)c2ccccc2)nc1)NO` [rocilinostat, ricolinostat], the “apoptosis (annexin V)” value ([4]; JURKAT and TALL1, 8 μM) is reported as “strong increase of cell death”, the “Notch3 expression, intensity of expression (MFI)” value (Notch3 [9]; 16 μM) is reported as “more evident” and the “Notch3 expression, percentage of positive cells (%)” value (Notch3 [9]; 16 μM) is reported as “moderate negative effect”. The “effects on Notch3 expression in the presence of Notch ligands (JAG1 and DLL4)” value (Notch3 [9]; 16 μM, ligand 4 ng/uL) was “not much influenced”, the Notch3 membrane expression (Notch3 [9]; rocilinostat alone) was “reduction” and the “cell viability (ATPlite assay)” value (two T-ALL cell lines) was “marked negative effect on cell growth”. For the same compound, the Notch3 membrane expression ([1]; TALL1 cells, 8 μM, 16 hours) was “reduces”, the “growth of HCC-1143 cells (dose-response curve)” value (HCC-1143 cells) was “inhibits the growth of HCC-1143 cells with dose-dependent effects” and the acetylated tubulin levels ([6]; JURKAT cells, 8 μM) was “increase”. For the same compound, the “cell mortality (Annexin V/propidium iodide)” value ([10]; Day 3 to Day 5) was “causes the death”, the “cell mortality in the presence of Notch ligands (JAG1 and DLL4)” value ([10]; ligand 4 ng/uL) was “maintained or slightly increased” and the “levels of the NOTCH3 FL protein, Western blotting” value (Notch3 receptor [2]; JURKAT cells, 8 μM) was “decreases”. The “Notch3 expression, Western blotting” value (Notch3 [11]; 16 hours) was “not reduced”, the “Notch3 expression, Western blotting” value (Notch3 [11]; 24 hours) was “drop in Notch3” and the “levels of NOTCH3 FL protein” value (NOTCH3 FL protein) was “decreases”. For the same compound, the “cell mortality (Annexin V/propidium iodide)” value ([12]; Day 3 to Day 5) was “causes the death”, the “cell mortality in the presence of Notch ligands (JAG1 and DLL4)” value ([12]; ligand 4 ng/uL) was “maintained” and the acetylated tubulin levels (acetylated tubulin) was “increase”. For the same compound, the “target (HDAC6) inhibition” value (HDAC6; 16 hours) was “inhibited”, the “target (HDAC6) inhibition” value (HDAC6; 24 hours) was “inhibited” and the “target (HDAC6) inhibition” value (HDAC6; 48 hours) was “no longer inhibited”. For the same compound, the “Notch3 expression in cell membrane” value (Notch3 [13]; 8 μM, 24 hours) was “reduction”, the “Notch3 expression, intensity of expression (MFI)” value (Notch3 [13]; 16 μM) was “marked negative effect” and the “Notch3 expression, percentage of positive cells (%)” value (Notch3 [13]; 16 μM) was “marked negative effect”. The “effect on Notch3 expression in the presence of Notch ligands (JAG1 and DLL4)” value (Notch3 [13]; 16 μM, ligand 4 ng/uL) was “not substantially affected”.
